These results are taken from patent US6784164B2, “Choline binding proteins for anti-pneumococcal vaccines” (priority 1996, dated 2004).

Experiment [1] relates to Adherence of S. pneumoniae to immobilized fibronectin. Format: cell-based. Conditions: for inhibition of pneumococcal adherence to fibronectin: added to coated wells 15 min prior to bacteria. Here is the method:
(§1) Fibronectin, its recombinant fragments, or rsVCAM were noncovalently immobilized through passive adsorption to 60 well Terasaki trays (wettable polystyrene [plasma treated], Robbins Scientific, Sunnyvale, Calif.). Briefly, substrates were reconstituted ([…]) in phosphate buffered saline (DPBS) and allowed to coat the Teresaki trays for 90 min at 37° C. […] Prior to use, the plates were washed five times with DPBS and excess liquid was removed from the wells.
(§2) Bacteria were labeled with fluorescein isothyocyanate as described [Geelen et al., Infect. Immun., 61:1538-1543 (1993)] and were resuspended in DPBS supplemented with 0.05% glucose and Ca^++ and Mg^++. Bacterial suspensions were brought to an A620 of 0.04, previously established to equal 1×10^7 cfu/ml of S. pneumoniae. 10 μl of bacteria were added to each well and incubated statically for 1 hour at 37° C. Unbound bacteria were eliminated by washing five times with DPBS. Bound bacteria were fixed to the surface by incubation with 2.5% glutaraldehyde solution for 3 minutes. Bacteria were counted visually with an inverted microscope (Nikon) equipped for fluorescence with an IF DM 510 filter. Binding was expressed as the number of attached bacteria per 0.25 mm^2 surface area. Values were corrected for non-specific binding by subtracting adherence to uncoated wells and are presented as the mean±standard deviation of at least 3 experiments with 3 to 6 wells/plate/experiment. For some experiments, binding was performed in the presence of rabbit polyclonal anti-pneumococcus R6 antibody or one of the following monoclonal antibodies: anti-choline (TEPC-15), anti-PspA Xi126 and XiR278 [McDaniel et al., Microb. Pathog., 13:261-9 (1992)]; anti-pneumococcal surface adhesin A PsaA [Sampson et al., Infect. Immun., 62:319-324 (1994)]; anti-VLA-4 (R & D Systems); and anti-VCAM-1 (R & D Systems). Alternatively, potential inhibition of pneumococcal binding was assessed in the presence of purified recombinant PspA or PsaA.

Experiment [2] relates to S. pneumoniae. Description: Direct adherence of S. pneumoniae to wells coated with VCAM-1, fibronectin fragments, peptides or enolase. Format: cell-based. The protocol:
as §1, §2

Experiment [3] in a line: Antigenicity: CBPs injected into rabbits, sera tested by Western blot. More on the design: species or system rabbit. Here is the method: Vaccine candidates must be antigenic. The CBPs from choline agarose chromatography were injected into rabbits and sera tested for cross reactivity. Several proteins produced a strong signal. Prominent were CBPs 112, 90, 84 and 70, and 50 (FIGS. 1 and 2).
White rabbits were immunized by intradermal injection in the back with 500 μg purified CBPs in 1 ml of a 1:1 emulsion of buffer and Complete Freund's Adjuvant. The rabbits were boosted with a subcutaneous dorsal injection of 250 μg of purified CBPs in 1 ml of 1:1 buffer to Incomplete Freund's Adjuvant at weeks 3, 6, 9, 12, and 15. Rabbits were pre-bled, and test bled approximately 10 days prior to each boost. Serum obtained at week 16 were used in all experiments.
(§3) The CBPs were examined by SDS-PAGE and Western blot using the following antibodies: (1) polyclonal anti-pneumococcal serum (rabbit or “ROB”); (2) anti-PspA monoclonal antibody; (3) anti-FITC monoclonal antibody; (4) convalescent human anti-pneumococcal sera and (5) polyclonal anti-CBP antibody. 9 CBPs were identified on SDS-PAGE/Western blot.
Background: Immunoblotting shows a protein as a band on a membrane.

Experiment [4] is described as follows: Western blot of CBPs with pooled human convalescent sera. The protocol:
as §3
The CBPs were analyzed by 7.5% sodium dodecyl sulfate polyacrylamide gel electrophoresis (SDS-PAGE) and by Western blotting after electrophoretic transfer to an Immobilon-P transfer membrane (Millipore Corporation, Bedford, Mass.). For some experiments, pneumococci were labelled with fluorescein isothiocyanate (FITC) as described in the adherence assay. Western blot analysis was carried out with anti-FITC (Moleular Probes), anti-CBP or covalescent antisera each at a dilution of 1:1000. Bound antibody was detected with peroxidase conjugated goat anti-rabbit serum detected with the Chemiluminesce Kit from Amersham (Cambridge, Mass.). The convalescent sera was a mixture of sera pooled from five patients collected one month after recovery from bacteremia and pneumonia. The capsular serotypes of these infecting pneumococci were 3, 7, 14, 22, and 23.

Read-outs that look alike come from different tables or passages of the source. No end group written: not given here.

`C[N+](C)(C)CCO` [choline]: the “decrease in binding of pneumococci to fibronectin” value in experiment [1] (preincubation of bacteria in 10% choline solution) is reported as “greater than 50%”. In the case of `NCCCC[C@H](N)C(=O)O` [L-lysine], the “inhibition of pneumococcal adherence to fibronectin” value in experiment [1] (0.1 M) stood at 67%; in experiment [1] (0.5M), 95%; in experiment [1] (1 M), 99%. For WQPPRARI [FN5], in experiment [2], the “direct adherence of S. pneumoniae to coated substrate (in words)” value is given as “able to support adherence”. On to “CBP84: pneumococcal choline binding protein, SEQ ID NO:3, 85% identical to Elongation Factor G (XREFSLEKTRNIGIMAHVDAGKT; X: residue not identified in the source)”, for which the “signal with sera of rabbits injected with CBPs” value in experiment [3] is reported as “strong signal”. Turning to `NCCCCCC(=O)O` [6-amino hexanoic acid], the “inhibition of pneumococcal adherence to fibronectin (in words)” value in experiment [1] is reported as “not able to inhibit adherence”.

B1: 2-phospho-D-glycerate hydrolyase (protein, UniProt P00924 2-437, looked up)
Enolase 1: AVSKVYARSVYDSRGNPTVEVELTTEKGVFRSIVPSGASTGVHEALEMRDGDKSKWMGKGVLHAVKNVNDVIAPAFVKANIDVKDQKAVDDFLISLDGTANKSKLGANAILGVSLAASRAAAAEKNVPLYKHLADLSKSKTSPYVLPVPFLNVLNGGSHAGGALALQEFMIAPTGAKTFAEALRIGSEVYHNLKSLTKKRYGASAGNVGDEGGVAPNIQTAEEALDLIVDAIKAAGHDGKIKIGLDCASSEFFKDGKYDLDFKNPNSDKSKWLTGPQLADLYHSLMKRYPIVSIEDPFAEDDWEAWSHFFKTAGIQIVADDLTVTNPKRIATAIEKKAADALLLKVNQIGTLSESIKAAQDSFAAGWGVMVSHRSGETEDTFIADLVVGLRTGQIKTGAPARSERLAKLNQLLRIEEELGDNAVFAGENFHHGDKL
notes: glycolytic enzyme enolase (Sigma), yeast
Regarding B1, the “maximum inhibition of pneumococcal adherence to fibronectin” value in experiment [1] (1000 U/ml, added to fibronectin coated wells prior to bacteria) came out at 98%. In addition, the “direct adherence of S. pneumoniae to coated substrate (in words)” value in experiment [2] is listed as “No direct adherence”.

B2: CBP112: 112 kDa surface exposed pneumococcal choline binding protein, N-terminal SEQ ID NO:1 (protein)
chain: MMREIQLDRRKHTQNVALNIKLSAIKTKYLRELNVLEEKSKDELPSEIKAKLDAAFEKFKKDTLKPGEKVAEAKKKVEEAKKKAEDQKEEDRRNYPTNTYKTLELEIAEFDVKVKEAELELVKEEAKESRNEGTIKQAKEKVESKKAEATRLENIKTDRKKAEEEAKRKADAKLKEANVATSDQGKPKGRAKRGVPGELATPDKKENDAKSSDSSVGEETLPSSSLKSGKKVAEAEKKVEEAEKKAKDQKEEDRRNYPTNTYKTLDLEIAESDVKVKEAELELVKEEAKEPRDEEKIKQAKAKVESKKAEATRLENIKTDRKKAEEEAKRKAAEEDKVKEKPAEQPQPAPATQPEKPAPKPEKPAEQPKAEKTDDQQAEEDYARRSEEEYNRLTQQQPPKTEKPAQPSTPKTGWKQENGMWYFYNTDGSMATGWLQNNGSWYYLNANGAMATGWLQNNGSWYYLNANGSMATGWLQNNGSWYYLNANGAMATGWLQYNGSWYYLNSNGAMATGWLQYNGSWYYLNANGDMATGWLQNNGSWYYLNANGDMATGWLQYNGSWYYLNANGDMATGWVKDGDTWYYLEASGAMKASQWFKVSDKWYYVNGSGALAVNTTVDGYGVNANGEWVNZ
For the molecule B2, the “signal with pooled human antisera from individuals recovering from pneumococcal disease” value in experiment [4] is on record as “strong signal”. Also, the “signal with sera of rabbits injected with CBPs” value in experiment [3] is recorded as “strong signal”.

B3: rsVCAM: recombinant soluble vascular cell adhesion molecule-1 (protein)
chain: FKIETTPESRYLAQIGDSVSLTCSTTGCESPFFSWRTQIDSPLNGKVTNEGTTSTLTMNPVSFGNEHSYLCTATCESRKLEKGIQVEIYSFPKDPEIHLSGPLEAGKPITVKCSVADVYPFDRLEIDLLKGDHLMKSQEFLEDADRKSLETKSLEVTFTPVIEDIGKVLVCRAKLHIDEMDSVPTVRQAVKELQVYISPKNTVISVNPSTKLQEGGSVTMTCSSEGLPAPEIFWSKKLDNGNLQHLSGNATLTLIAMRMEDSGIYVCEGVNLIGKNRKEVELIVQEKPFTVEISPGPRIAAQIGDSVMLTCSVMGCESPSFSWRTQIDSPLSGKVRSEGTNSTLTLSPVSFENEHSYLCTVTCGHKKLEKGIQVELYSFPRDPEIEMSGGLVNGSSVTVSCKVPSVYPLDRLEIELLKGETILENIEFLEDTDMKSLENKSLEMTFIPTIEDTGKALVCQAKLHIDDMEFEPKQRQSTQTLYVNVAPRDTTVLVSPSSILEEGSSVNMTCLSQGFPAPKILWSRQLPNGELQPLSENATLTLISTKMEDSGVYLCEGINQAGRSRKEVELIIQVTPKDIKLTAFPSESVKEGDTVIISCTCGNVPETWIILKKKAETGDTVLKSIDGAYTIRKAQLKDAGVYECESKNKVGSQLRSLTLDVQGRENNKDYFSPE
For the molecule B3, in experiment [1] (preincubation of the bacteria with the substance), the “inhibition of adherence of S. pneumoniae to fibronectin” value was 96%. In experiment [2], the “density of S. pneumoniae adhering directly to coated wells” value was 75±18 bacteria/0.25 mm ^2 and the “direct adherence as share of adherence to whole fibronectin” value came to 6%.
